Literature values as cited in patent US20030230530A1, “Process for the preparation of a combination of Famotidine Polymorphs A and B” (M/S. TONIRA PHARMA LIMITED, priority 2002, published 2003).

Legend:
[1] = background statement, comparison of Polymorph A and B
[2] = background statement, comparison of Polymorph A and B; remark: listed apart in the source

SMILES | stability of the polymorph [1] | dissolution properties [2]
N=C(N)Nc1nc(CSCCC(=N)NS(N)(=O)=O)cs1 [Polymorph A, N-Sulfamyl-3-(2-guanidinothiazole-4-yl-methylthio) proionamidine] | more stable | low dissolution properties
N=C(N)Nc1nc(CSCCC(=N)NS(N)(=O)=O)cs1 [Polymorph B, N-Sulfamyl-3-(2-guanidinothiazole-4-yl-methylthio) proionamidine] | metastable | higher dissolution properties
